Reference: patent US20230167073A1 (Teijin Pharma Limited, priority 2020, published 2023)

target: T1, Human TRPC6 (Homo sapiens, UniProt Q9Y210); experiment: Evaluation of TRPC6 channel inhibitory activity (1), FLIPR Calcium 5 Assay Kit, OAG stimulation (Compound Nos. 1-1293); format: cell-based; conditions: Human TRPC6 stably-expressing cells, OAG 30 μM, FLIPR Calcium 5 Assay Kit; read-out: Inhibitory activity (pIC50 class) (converted)
T1 construct: expressed in transfected cells
T1 sequence (Q9Y210 1-931): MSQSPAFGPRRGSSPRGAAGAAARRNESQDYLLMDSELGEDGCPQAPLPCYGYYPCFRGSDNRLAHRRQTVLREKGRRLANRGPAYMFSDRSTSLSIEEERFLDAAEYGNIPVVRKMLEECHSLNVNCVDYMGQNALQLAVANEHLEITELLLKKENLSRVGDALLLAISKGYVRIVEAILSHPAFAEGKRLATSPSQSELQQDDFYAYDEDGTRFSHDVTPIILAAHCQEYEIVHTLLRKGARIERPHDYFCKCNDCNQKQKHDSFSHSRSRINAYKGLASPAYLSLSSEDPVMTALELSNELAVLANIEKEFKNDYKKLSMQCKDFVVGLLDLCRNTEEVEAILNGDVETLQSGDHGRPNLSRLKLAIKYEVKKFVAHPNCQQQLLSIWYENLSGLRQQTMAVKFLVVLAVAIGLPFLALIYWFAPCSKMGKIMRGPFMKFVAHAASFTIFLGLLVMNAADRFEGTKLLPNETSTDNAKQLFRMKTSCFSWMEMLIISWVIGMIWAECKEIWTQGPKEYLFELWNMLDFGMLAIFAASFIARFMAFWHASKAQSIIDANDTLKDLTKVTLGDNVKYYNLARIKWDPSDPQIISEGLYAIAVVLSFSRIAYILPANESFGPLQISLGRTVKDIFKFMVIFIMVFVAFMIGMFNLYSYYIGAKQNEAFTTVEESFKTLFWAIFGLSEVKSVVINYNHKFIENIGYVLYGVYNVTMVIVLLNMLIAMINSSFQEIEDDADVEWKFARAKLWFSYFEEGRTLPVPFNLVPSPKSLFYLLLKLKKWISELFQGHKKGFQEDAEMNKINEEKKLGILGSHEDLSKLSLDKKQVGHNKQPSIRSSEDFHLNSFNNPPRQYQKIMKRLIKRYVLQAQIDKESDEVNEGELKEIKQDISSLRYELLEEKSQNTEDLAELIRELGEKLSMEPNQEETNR
Method in brief: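 Stable human TRPC6 line; fluorescent Ca2+ dye loading, then 20 min compound exposure before 30 μM OAG trigger. Peak-minus-baseline signal converted to % inhibition against untreated and unstimulated wells; potency given as pIC50 band.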

IC50, 0.01 to 1 µM:
Cc1nc(Oc2cc(C#N)ccc2-c2ncc(CN)cn2)cc(N2CCC[C@H]2C#N)n1 [compound 675, (2S)-1-[6-[2-[5-(aminomethyl)pyrimidin-2-yl]-5-cyanophenoxy]-2-methylpyrimidin-4-yl]pyrrolidine-2-carbonitrile]
Cn1nc(-c2ccccn2)cc1Oc1cc(C#N)ccc1-c1nccc(CN)n1 [compound 682, 4-[4-(aminomethyl)pyrimidin-2-yl]-3-(2-methyl-5-pyridin-2-ylpyrazol-3-yl)oxybenzonitrile]
Cc1cc(Oc2cc(C#N)ccc2-c2ncc([C@H](O)CN)cn2)cc(-c2ccccn2)n1 [compound 688, 4-[5-[(1S)-2-amino-1-hydroxyethyl]pyrimidin-2-yl]-3-(2-methyl-6-pyridin-2-ylpyridin-4-yl)oxybenzonitrile]
Cc1cc(Oc2cc(C#N)ccc2-c2ccc([C@H](O)CN)cn2)cc(-c2nccs2)n1 [compound 689, 4-[5-[(1S)-2-amino-1-hydroxyethyl]pyridin-2-yl]-3-[2-methyl-6-(1,3-thiazol-2-yl)pyridin-4-yl]oxybenzonitrile]
Cc1cc(Oc2cc(C#N)ccc2-c2ccc([C@H](O)CN)cn2)cc(-c2ncco2)n1 [compound 690, 4-[5-[(1S)-2-amino-1-hydroxyethyl]pyridin-2-yl]-3-[2-methyl-6-(1,3-oxazol-2-yl)pyridin-4-yl]oxybenzonitrile]
Cc1cc(Oc2cc(C#N)ccc2-c2ccc([C@H](O)CN)cn2)cc(-c2cnccn2)n1 [compound 693, 4-[5-[(1S)-2-amino-1-hydroxyethyl]pyridin-2-yl]-3-(2-methyl-6-pyrazin-2-ylpyridin-4-yl)oxybenzonitrile]
Cc1cc(Oc2cc(C#N)ccc2-c2ccc([C@H](O)CN)cn2)cc(-c2nc(C)cs2)n1 [compound 694, 4-[5-[(1S)-2-amino-1-hydroxyethyl]pyridin-2-yl]-3-[2-methyl-6-(4-methyl-1,3-thiazol-2-yl)pyridin-4-yl]oxybenzonitrile]
CN(C)c1cc(Oc2cc(C#N)ccc2-c2ccc(CN)cn2)cnn1 [compound 698, 4-[5-(aminomethyl)pyridin-2-yl]-3-[6-(dimethylamino)pyridazin-4-yl]oxybenzonitrile]
N#Cc1ccc(-c2ncc(CCN)cn2)c(Oc2nnc(-c3ccccn3)s2)c1 [compound 703, 4-[5-(2-aminoethyl)pyrimidin-2-yl]-3-[(5-pyridin-2-yl-1,3,4-thiadiazol-2-yl)oxy]benzonitrile]
N#Cc1ccc(-c2ncc(CN)cn2)c(Oc2nnc(-c3ccccc3)s2)c1 [compound 705, 4-[5-(aminomethyl)pyrimidin-2-yl]-3-[(5-phenyl-1,3,4-thiadiazol-2-yl)oxy]benzonitrile]

IC50, < 0.01 µM:
Cc1cc(Oc2cc(C#N)ccc2-c2ccc([C@H](O)CN)cn2)cc(-c2ccccn2)n1 [compound 691, 4-[5-[(1S)-2-amino-1-hydroxyethyl]pyridin-2-yl]-3-(2-methyl-6-pyridin-2-ylpyridin-4-yl)oxybenzonitrile]
N#Cc1ccc(-c2ccc(CN)cn2)c(Oc2cnnc(C3CC3)c2)c1 [compound 695, 4-[5-(aminomethyl)pyridin-2-yl]-3-(6-cyclopropylpyridazin-4-yl)oxybenzonitrile]
N#Cc1ccc(-c2ccc(CN)cn2)c(Oc2cnnc(N3CCCC3)c2)c1 [compound 696, 4-[5-(aminomethyl)pyridin-2-yl]-3-(6-pyrrolidin-1-ylpyridazin-4-yl)oxybenzonitrile]
N#Cc1ccc(-c2ccc(CN)cn2)c(Oc2cnnc(N3CCCCC3)c2)c1 [compound 697, 4-[5-(aminomethyl)pyridin-2-yl]-3-(6-piperidin-1-ylpyridazin-4-yl)oxybenzonitrile]
Cc1cc(Oc2cc(C#N)ccc2-c2ncc(C(C)N)cn2)cc(N2CCOCC2)n1 (centres unmarked) [compound 701]
CC(N)c1cnc(-c2ccc(C#N)cc2Oc2cc(-c3ccccn3)nn2C)nc1 (centres unmarked) [compound 702, 4-[5-(1-aminoethyl)pyrimidin-2-yl]-3-(2-methyl-5-pyridin-2-ylpyrazol-3-yl)oxybenzonitrile]
N#Cc1ccc(-c2ncc(CCN)cn2)c(Oc2nnc(N3CCCCC3)s2)c1 [compound 704, 4-[5-(2-aminoethyl)pyrimidin-2-yl]-3-[(5-piperidin-1-yl-1,3,4-thiadiazol-2-yl)oxy]benzonitrile]
N#Cc1ccc(-c2ncc(CCN)cn2)c(Oc2nnc(-c3ccccc3)s2)c1 [compound 706, 4-[5-(2-aminoethyl)pyrimidin-2-yl]-3-[(5-phenyl-1,3,4-thiadiazol-2-yl)oxy]benzonitrile]

IC50, > 1 µM:
Cc1cc(Oc2cc(C#N)ccc2-c2ncc(CN)cn2)no1 [compound 676, 4-[5-(aminomethyl)pyrimidin-2-yl]-3-[(5-methyl-1,2-oxazol-3-yl)oxy]benzonitrile]
Cc1cc(Oc2cc(C#N)ccc2-c2ncc(CCN)cn2)no1 [compound 677, 4-[5-(2-aminoethyl)pyrimidin-2-yl]-3-[(5-methyl-1,2-oxazol-3-yl)oxy]benzonitrile]
Cn1nc2c(c1Oc1cc(C#N)ccc1-c1ncc(CN)cn1)CCC2 [compound 678, 4-[5-(aminomethyl)pyrimidin-2-yl]-3-[(2-methyl-5,6-dihydro-4H-cyclopenta[c]pyrazol-3-yl)oxy]benzonitrile]
Cn1nc2c(c1Oc1cc(C#N)ccc1-c1ncc(CN)cn1)COCC2 [compound 679, 4-[5-(aminomethyl)pyrimidin-2-yl]-3-[(2-methyl-6,7-dihydro-4H-pyrano[4,3-c]pyrazol-3-yl)oxy]benzonitrile]
Cn1nc(C2CC2)cc1Oc1cc(C#N)ccc1-c1nccc(CN)n1 [compound 680, 4-[4-(aminomethyl)pyrimidin-2-yl]-3-(5-cyclopropyl-2-methylpyrazol-3-yl)oxybenzonitrile]
Cc1cc(Oc2cc(C#N)ccc2-c2nccc(CN)n2)cc(N2CCOCC2)n1 [compound 681, 4-[4-(aminomethyl)pyrimidin-2-yl]-3-(2-methyl-6-morpholin-4-ylpyridin-4-yl)oxybenzonitrile]
Cn1nc2c(c1Oc1cc(C#N)ccc1-c1cc(CCN)ccn1)CCC2 [compound 683, 4-[4-(2-aminoethyl)pyridin-2-yl]-3-[(2-methyl-5,6-dihydro-4H-cyclopenta[c]pyrazol-3-yl)oxy]benzonitrile]
Cn1nc2c(c1Oc1cc(C#N)ccc1-c1ncc(CN)cn1)CCCC2 [compound 684, 4-[5-(aminomethyl)pyrimidin-2-yl]-3-[(2-methyl-4,5.6,7-tetrahydroindazol-3-yl)oxy]benzonitrile]
Cn1nc2c(c1Oc1cc(C#N)ccc1-c1nccc(CN)n1)CCCC2 [compound 685, 4-[4-(aminomethyl)pyrimidin-2-yl]-3-[(2-methyl-4,5,6,7-tetrahydroindazol-3-yl)oxy]benzonitrile]
Cc1cc(Oc2cc(C#N)ccc2-c2ncc(CCN)cn2)cc(-c2ncccn2)n1 [compound 686, 4-[5-(2-aminoethyl)pyrimidin-2-yl]-3-(2-methyl-6-pyrimidin-2-ylpyridin-4-yl)oxybenzonitrile]
Cc1cc(Oc2cc(C#N)ccc2-c2ncc(CCN)cn2)cc(-c2nccn2C)n1 [compound 687, 4-[5-(2-aminoethyl)pyrimidin-2-yl]-3-[2-methyl-6-(1-methylimidazol-2-yl)pyridin-4-yl]oxybenzonitrile]
Cc1cc(Oc2cc(C#N)ccc2-c2ccc([C@H](O)CN)cn2)cc(-c2ncccn2)n1 [compound 692, 4-[5-[(1S)-2-amino-1-hydroxyethyl]pyridin-2-yl]-3-(2-methyl-6-pyrimidin-2-ylpyridin-4-yl)oxybenzonitrile]
N#Cc1ccc(-c2ncc(CN)cn2)c(Oc2nnc(-c3ccccn3)s2)c1 [compound 699, 4-[5-(aminomethyl)pyrimidin-2-yl]-3-[(5-pyridin-2-yl-1,3,4-thiadiazol-2-yl)oxy]benzonitrile]
N#Cc1ccc(-c2ncc(CN)cn2)c(Oc2nnc(Br)s2)c1 [compound 700, 4-[5-(aminomethyl)pyrimidin-2-yl]-3-[(5-bromo-1,3,4-thiadiazol-2-yl)oxy]benzonitrile]
